Literature values, collected in publication PMC10891214, “Effects of food and ethnicity on the pharmacokinetics of venadaparib, a next-generation PARP inhibitor, in healthy Korean, Caucasian, and Chinese male subjects” (Investigational New Drugs, 2023).

System: patient-derived xenograft
Parameters: method as in PMID 36808277
Settings: patient-derived xenograft mouse model; cited from earlier work

Compound: O=C(c1cc(Cc2n[nH]c(=O)c3ccccc23)ccc1F)N1CCN(C(=O)C2CC2)CC1 [olaparib, reference compound]
- Tumor growth inhibition rate: 118.2%
